{"source": "patent US20250090539A1", "about": "“COMBINATION TREATMENT OF CANCERS” (Repare Therapeutics Inc., priority 2023, published 2025)", "key": {"[1]": {"tested_on": "SUM149PT breast cancer cell line", "test": "CellTiter Glo cell viability / ZIP synergy in BRCA1mut model", "format": "cell-based", "conditions": "single agent at the same low nM doses", "protocol": "FIGS. 2A-2B are charts showing the ZIP synergy score matrix in a BRCA1mut model treated with gemcitabine at low-nanomolar concentrations (15 nM) synergizing with camonsertib 7.5 nM (2 days on (FIG. 2A) or 3 days on (FIG. 2B)). ZIP synergy scores greater than 10 indicate drug synergy and scores less than −10 indicates antagonism. Mean CTG cell viability data from 3 independent experiments were processed with SynergyFinder (https://synergyfinder.fimm.fi/; PMIDs: 35580060, 26949479). Dotted lines indicated doses exerting maximum synergy.\nFIGS. 3A-3B show the synergy of gemcitabine with camonsertib in a BRCA1 mut model. […] FIG. 3B is a graph of the viability of the SUM149PT treated with the indicated compounds and schedules. Data (circles) from three independent experiments is provided with mean (bars)±SD. The P value calculated with an unpaired two-tailed Student's t-test. Cell viability was read out at day 8 with a CellTiter Glo (CTG) assay.\nTo assess the synergy between camonsertib and gemcitabine in a BRCA1-mutated cancer cell model in vitro, a SUM149PT breast cancer cell line was employed. The combination was administered at various dosing schedules—1, 2, or 3 day treatment with camonsertib combined with a single 4 h dose of gemcitabine (FIG. 3A)."}, "[2]": {"test": "maximum tolerated dose in mice", "format": "in vivo"}, "[3]": {"tested_on": "SUM149PT BRCA1 mutated xenograft", "format": "in vivo", "conditions": "single agents at low doses: camonsertib 10 mg/kg PO 3 days on/4 days off; gemcitabine 20 mg/kg QW; 28 days", "procedure": "The relative tumor xenograft volume (FIG. 4A) and change in body weight in mice treated (FIG. 4B) is shown for mice treated with gemcitabine at 20 mg/kg QW on Day 1 and/or camonsertib at 10 mg/kg PO on different schedules weekly for 28 days. Results are expressed as mean±SEM, N=7/group in female NOD-SCID mice. Statistical differences were established by Student's T-test (GraphPad Prism v9) with Welch's correction; ns=not significant, *p<0.05, **p<0.01.\nA xenograft model was employed to assess the effect of camonsertib in combination with gemcitabine on tumor formation in an animal model. Mice harboring established tumors were treated with a vehicle control, camonsertib (10 mg/kg once per day with 3 days on/4 days off), gemcitabine (20 mg/kg once per week), or a combination of both camonsertib (once per day selected from 3 days on/4 days off, 2 days on/5 days off, or 1 day on/6 days off) and gemcitabine (once per week) for 28 days.\nRelative tumor xenograft volume of the mice treated with gemcitabine at 20 mg/kg QW on Day 1 and/or camonsertib at 10 mg/kg PO on different schedules weekly for 28 days is shown in FIG. 4A and the change in body weight is shown in FIG. 4B. Results are expressed as mean±SEM, N=7/group in female NOD-SCID mice. Statistical differences were established by Student's T-test (GraphPad Prism v9) with Welch's correction; ns=not significant, *p<0.05, **p<0.01."}, "[4]": {"conditions": "humans, cited from earlier work"}}, "note": "Where a name gives a salt, the structure may show the parent alone. Read-outs that look alike come from different tables or passages of the source."}
{"smiles": "C[C@@H]1COCCN1c1cc([C@]2(O)C[C@H]3CC[C@@H](C2)O3)c2cnn(-c3cc[nH]n3)c2n1", "note": "[camonsertib, (1R,5S)-3-[6-[(3R)-3-methylmorpholin-4-yl]-1-(1H-pyrazol-5-yl)pyrazolo[3,4-b]pyridin-4-yl]-8-oxabicyclo[3.2.1]octan-3-ol]", "values": [{"measurement": "cell viability (CTG, day 8)", "setting": "[1]", "value": "only modest effect"}, {"measurement": "MTD", "setting": "[2]", "value": 30, "unit": "mg/kg"}, {"measurement": "anti-tumor activity (relative tumor xenograft volume)", "setting": "[3]", "value": "reduced activity"}]}
{"smiles": "Nc1ccn([C@@H]2O[C@H](CO)[C@@H](O)C2(F)F)c(=O)n1", "note": "[gemcitabine, 2-Deoxy-2,2-difluorocytidine hydrochloride]", "values": [{"measurement": "cell viability (CTG, day 8)", "setting": "[1]", "value": "only modest effect"}, {"measurement": "MTD", "setting": "[2]; mouse, in vivo, read-out: MTD", "value": 100, "unit": "mg/kg"}, {"measurement": "anti-tumor activity (relative tumor xenograft volume)", "setting": "[3]", "value": "reduced activity"}, {"measurement": "mean gemcitabine peak plasma concentration", "setting": "[4]; 800 mg/m^2", "value": 24, "unit": "µM"}, {"measurement": "mean gemcitabine peak plasma concentration", "setting": "[4]; 1000 mg/m^2", "value": 32, "unit": "µM"}]}
